Assay results as given in ChEMBL document CHEMBL1221184, “Identifying off-target effects and hidden phenotypes of drugs in human cells” (Nat Chem Biol, 2006).

Tests used:
Type in all cases: functional
PC-3 [1] = assay: Antiproliferative activity against human PC3 cells at 30 uM after 120 hrs by MTT assay relative to DMSO
PC-3 [2] = assay: Antiproliferative activity against human PC3 cells at 2 uM after 120 hrs by MTT assay relative to DMSO
PC-3 [3] = assay: Antiproliferative activity against human PC3 cells at 10 uM after 120 hrs by MTT assay relative to DMSO

SMILES | fold change (FC) (PC-3 [1]) | fold change (FC) (PC-3 [2]) | fold change (FC) (PC-3 [3])
CC[C@H](C)C(=O)O[C@H]1CCC=C2C=C[C@H](C)[C@H](CC[C@@H]3C[C@@H](O)CC(=O)O3)[C@H]21 [MEVASTATIN] | 0.243 |  | 
CC1(C)CCC2=C(O1)c1ccccc1C(=O)C2=O [LAPACHONE] |  | 0.243 | 
CC(C)c1nc(N(C)S(C)(=O)=O)nc(-c2ccc(F)cc2)c1/C=C/[C@@H](O)C[C@@H](O)CC(=O)O [ROSUVASTATIN] | 0.491 |  | 
Cc1ccc(-c2cc(C(F)(F)F)nn2-c2ccc(S(N)(=O)=O)cc2)cc1 [CELECOXIB] |  |  | 0.902
COCc1c(C(C)C)nc(C(C)C)c(/C=C/[C@@H](O)C[C@@H](O)CC(=O)O)c1-c1ccc(F)cc1 [CERIVASTATIN] | 0.254 |  | 
CC[C@H](C)[C@@H](CO[C@@H](Cc1ccccc1)C(=O)N[C@@H](CCS(C)(=O)=O)C(=O)OC(C)C)NC[C@@H](N)CS |  |  | 0.719
CC[C@H](C)C(=O)O[C@H]1C[C@H](O)C=C2C=C[C@H](C)[C@H](CC[C@@H](O)C[C@@H](O)CC(=O)O)[C@H]21 [PRAVASTATIN] | 1.098 |  | 
O=C1Cc2cc(CCN3CCN(c4nsc5ccccc45)CC3)c(Cl)cc2N1 [ZIPRASIDONE] |  | 1.017 | 
Cc1onc(-c2ccccc2)c1-c1ccc(S(N)(=O)=O)cc1 [VALDECOXIB] |  |  | 1.048
CC(=O)N1CCN(c2ccc(OCC3COC(Cn4ccnc4)(c4ccc(Cl)cc4Cl)O3)cc2)CC1 (stereo not given) [KETOCONAZOLE] | 1.066 |  | 
Fc1ccc([C@@H]2CCNC[C@H]2COc2ccc3c(c2)OCO3)cc1 [PAROXETINE] |  |  | 0.328
CCCCCCCCCCCCC/C=C/[C@H](O)[C@@H](CO)NC(C)=O [ACETYL CERAMIDE] |  |  | 0.787
CC(C)(C)c1ccc(C(O)CCCN2CCC(C(O)(c3ccccc3)c3ccccc3)CC2)cc1 (stereo not given) [TERFENADINE] |  |  | 0.212
OCCOCCN1CCN(C2=Nc3ccccc3Sc3ccccc32)CC1 [QUETIAPINE] |  | 1.013 | 
CN1CCN(C2=Nc3cc(Cl)ccc3Nc3ccccc32)CC1 [CLOZAPINE] |  | 0.977 | 
CC(C)NCC(O)COc1cccc2ccccc12 (stereo not given) [PROPRANOLOL] |  | 0.986 | 
CC(C)n1c(/C=C/C(O)CC(O)CC(=O)O)c(-c2ccc(F)cc2)c2ccccc21 (stereo not given) [FLUVASTATIN] | 0.255 |  | 
CCC1(c2ccc(N)cc2)CCC(=O)NC1=O (stereo not given) [AMINOGLUTETHIMIDE] | 0.979 |  | 
Cc1cc2c(s1)Nc1ccccc1N=C2N1CCN(C)CC1 [OLANZAPINE] |  | 1.059 | 
CC(C)c1c(C(=O)Nc2ccccc2)c(-c2ccccc2)c(-c2ccc(F)cc2)n1CC[C@@H](O)C[C@@H](O)CC(=O)O [ATORVASTATIN] | 0.264 |  | 
Cc1nc2n(c(=O)c1CCN1CCC(c3noc4cc(F)ccc34)CC1)CCCC2 [RISPERIDONE] |  | 1.071 | 
c1ccc([C@H]2CN3CCSC3=N2)cc1 [LEVAMISOLE] |  |  | 1.028
CC[C@H](C)C(=O)O[C@H]1C[C@@H](C)C=C2C=C[C@H](C)[C@H](CC[C@@H]3C[C@@H](O)CC(=O)O3)[C@H]21 [LOVASTATIN] | 0.25 |  | 
CCC(C)(C)C(=O)O[C@H]1C[C@@H](C)C=C2C=C[C@H](C)[C@H](CC[C@@H]3C[C@@H](O)CC(=O)O3)[C@H]21 [SIMVASTATIN] | 0.239 |  | 
CC(C)(C)NCC(O)c1ccc(O)c(CO)c1 (stereo not given) [ALBUTEROL] |  | 0.926 | 
O=S(=O)(NCCNC/C=C/c1ccc(Br)cc1)c1cccc2cnccc12 |  | 1.028 | 
CC(C)(C)NCC(O)c1cc(Cl)c(N)c(Cl)c1 (stereo not given) [CLENBUTEROL] |  | 0.963 | 
CS(=O)(=O)c1ccc(C2=C(c3ccccc3)C(=O)OC2)cc1 [ROFECOXIB] |  |  | 1.08
CC(C)NCC(O)c1ccc(O)c(O)c1 (stereo not given) [ISOPROTERENOL] |  | 0.955 | 
Cc1ccc(NC(=O)c2ccc(CN3CCN(C)CC3)cc2)cc1Nc1nccc(-c2cccnc2)n1 [IMATINIB] |  |  | 0.5
